Experimental data published in patent US20230365537A1, “POLO LIKE KINASE 4 INHIBITORS” (ORIC Pharmaceuticals, Inc., priority 2021, published 2023).

Columns and labels:
[1] = molecular target: human recombinant Aurora B (Homo sapiens (Human), UniProt Q96GD4); assay: Aurora B Kinase Biochemical Assay (ADP-Glo); settings: ratio of Aurora B IC50 to PLK4 IC50 (selectivity)
How it was run: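 IC50 derived by four-parameter nonlinear fit of ADP-Glo luminescence (ADP produced). Compound was preincubated 15 min at RT with 20 nM recombinant human Aurora B, in 50 mM HEPES pH 7.5, 10 mM MgCl2, 1 mM EGTA, 1 mM DTT, 0.01% Brij-35/BSA.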

[2] = tested on: CHP-134 cells; assay: CHP134 CellTiter-Glo (CTG) Assay; assay type: cell-based; settings: Homo sapiens, CHP-134, 120 h, 5 days, viable cells by CellTiter-Glo
How it was run: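 Nine-point 1:3 dilution series, diluted into growth media, added in quadruplicate to CHP-134 cells plated 16 h earlier at 200 cells/well.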

[3] = molecular target: human recombinant Aurora A (Homo sapiens (Human), UniProt O14965); assay: Aurora A Kinase Biochemical Assay (ADP-Glo); settings: ratio of Aurora A IC50 to PLK4 IC50 (selectivity)
Sequence of human recombinant Aurora A (O14965 whole entry): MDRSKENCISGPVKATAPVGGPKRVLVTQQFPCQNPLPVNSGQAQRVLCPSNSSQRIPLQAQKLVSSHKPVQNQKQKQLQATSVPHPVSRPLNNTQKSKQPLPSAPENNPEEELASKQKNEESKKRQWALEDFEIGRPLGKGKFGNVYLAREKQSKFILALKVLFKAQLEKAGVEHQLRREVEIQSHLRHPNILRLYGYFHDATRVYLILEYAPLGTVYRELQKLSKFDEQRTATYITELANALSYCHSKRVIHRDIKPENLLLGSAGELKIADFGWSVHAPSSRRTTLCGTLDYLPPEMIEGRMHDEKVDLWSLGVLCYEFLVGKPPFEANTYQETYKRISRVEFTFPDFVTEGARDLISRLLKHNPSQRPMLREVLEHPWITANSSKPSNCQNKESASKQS

[4] = molecular target: human recombinant PLK4 (Homo sapiens (Human), UniProt O00444); assay: PLK4 Biochemical Assay (ADP-Glo); settings: 0.5 nM PLK4, 8.0 µM ATP, 4.7 µM MBP, 6 hours at RT
Sequence of human recombinant PLK4 (O00444 whole entry): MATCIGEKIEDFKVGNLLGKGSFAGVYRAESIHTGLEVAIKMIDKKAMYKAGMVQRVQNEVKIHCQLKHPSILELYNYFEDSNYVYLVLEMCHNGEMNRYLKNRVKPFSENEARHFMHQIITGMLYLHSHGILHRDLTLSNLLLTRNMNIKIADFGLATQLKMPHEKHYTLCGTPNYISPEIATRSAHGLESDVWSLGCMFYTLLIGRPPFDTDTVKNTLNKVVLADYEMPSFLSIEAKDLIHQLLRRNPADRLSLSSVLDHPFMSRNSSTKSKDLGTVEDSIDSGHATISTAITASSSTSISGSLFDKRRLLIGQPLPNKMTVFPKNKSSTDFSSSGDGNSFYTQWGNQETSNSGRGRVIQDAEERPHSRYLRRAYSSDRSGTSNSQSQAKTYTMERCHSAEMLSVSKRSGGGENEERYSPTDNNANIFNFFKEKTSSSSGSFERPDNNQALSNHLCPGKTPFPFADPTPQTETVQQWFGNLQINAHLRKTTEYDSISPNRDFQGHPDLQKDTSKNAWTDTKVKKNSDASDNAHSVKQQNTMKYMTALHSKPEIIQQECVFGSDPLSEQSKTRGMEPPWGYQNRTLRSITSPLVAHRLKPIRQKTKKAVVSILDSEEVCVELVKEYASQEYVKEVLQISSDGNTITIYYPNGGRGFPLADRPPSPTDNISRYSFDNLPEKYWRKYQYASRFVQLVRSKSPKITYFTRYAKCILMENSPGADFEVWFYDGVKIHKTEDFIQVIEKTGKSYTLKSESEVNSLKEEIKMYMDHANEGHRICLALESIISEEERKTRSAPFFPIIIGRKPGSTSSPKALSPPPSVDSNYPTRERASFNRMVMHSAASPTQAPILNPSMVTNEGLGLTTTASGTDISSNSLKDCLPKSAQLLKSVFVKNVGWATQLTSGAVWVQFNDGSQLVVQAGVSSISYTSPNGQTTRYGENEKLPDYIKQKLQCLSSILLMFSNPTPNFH
How it was run: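 Luminescent ADP-Glo detection quantified ADP production, with ATP depletion for 40 min and detection for 30 min at room temperature. Compound and PLK4 (1.0 nM stock addition) were preincubated 15 min in HEPES pH 7.5 buffer containing MgCl2, EGTA, DTT, Brij-35 and BSA. IC50 values were obtained by four-parameter nonlinear regression.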

Sequence of human recombinant Aurora B (Q96GD4 whole entry): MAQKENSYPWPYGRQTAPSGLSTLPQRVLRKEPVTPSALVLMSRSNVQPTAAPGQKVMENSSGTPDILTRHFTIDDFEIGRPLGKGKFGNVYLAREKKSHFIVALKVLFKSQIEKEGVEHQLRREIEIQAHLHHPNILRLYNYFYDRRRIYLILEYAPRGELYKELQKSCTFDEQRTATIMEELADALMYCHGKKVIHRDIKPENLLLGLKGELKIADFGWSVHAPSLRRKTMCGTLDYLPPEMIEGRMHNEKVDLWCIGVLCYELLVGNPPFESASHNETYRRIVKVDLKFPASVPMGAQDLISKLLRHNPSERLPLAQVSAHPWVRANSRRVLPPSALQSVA

Compound | [Aurora B IC50 (nM)]/[PLK4 IC50 (nM)] [1] | IC50 [2] | [Aurora A IC50 (nM)]/[PLK4 IC50 (nM)] [3] | IC50 [4]
COc1ccc2c(c1)[C@]1(C[C@H]1c1ccc3c(Nc4nc(C5CC5)nc(N5CCS(=O)(=O)CC5)c4OC)n[nH]c3c1)C(=O)N2 [Example 69, 4-[2-cyclopropyl-5-methoxy-6-({6-[(1R,2S)-5′-methoxy-2′-oxo-1’,2′-dihydrospiro[cyclopropane-1,3′-indol]-2-yl]-1H-indazol-3-yl}amino)pyrimidin-4-yl]-1λ6-thiomorpholine-1,1-dione] | 480.7112 | 686 nM | 1785.978 | 2.98 nM
COc1ccc2c(c1)[C@]1(C[C@H]1c1ccc3c(Nc4ncnc(N5CC(O)C5)c4Cl)n[nH]c3c1)C(=O)N2 [Example 46, (1R,2S)-2-(3-{[5-chloro-6-(3-hydroxyazetidin-1-yl)pyrimidin4-yl]amino}-1H-indazol-6-yl)-5′-methoxyspiro[cyclopropane-1,3′-indol]-2′(1′H)-one] | 135.8985 | 1430 nM | 2542.642 | 2.52 nM
COc1ccc2c(c1)[C@]1(C[C@H]1c1ccc3c(Nc4nc(N5CC(F)C5)ncc4OC)n[nH]c3c1)C(=O)N2 [Example 174, (1R,2S)-2-(3-{[2-(3-fluoroazetidin-1-yl)-5-methoxypyrimidin-4-yl]amino}-1H-indazol-6-yl)-5′-methoxyspiro[cyclopropane-1,3′-indol]-2′(1′H)-one] | 353.7741 | 392 nM | 365.8511 | 1.92 nM
COc1ccc2c(c1)[C@]1(C[C@H]1c1ccc3c(Nc4nn(C)c(=O)cc4OC)n[nH]c3c1)C(=O)N2 [Example 233, (1R,2S)-5′-methoxy-2-{3-[(4-methoxy-1-methyl-6-oxo-1,6-dihydropyridazin-3-yl)amino]-1H-indazol-6-yl)spiro[cyclopropane-1,3′-indol]-2′(1′H)-one] | 107.2788 | 4800 nM | 332.3068 | 3.57 nM
CCOc1cnc(C)nc1Nc1n[nH]c2cc([C@@H]3C[C@@]34C(=O)Nc3ccc(OC)cc34)ccc12 [Example 134, (1R,2S)-2-{3-[(5-ethoxy-2-methylpyrimidin-4-yl)amino]-1-indazol-6-yl}-5′-methoxyspiro[cyclopropane-1,3′-indol]-2′(1′H)-one] | 969.2737 | 782 nM | 8849.1620 | 1.79 nM
COc1ccc2c(c1)[C@]1(C[C@H]1c1ccc3c(Nc4nc(N5CC(F)(F)C5)ncc4OC)n[nH]c3c1)C(=O)N2 [Example 173, (1R,2S)-2-(3-([2-(3,3-difluoroazetidin-1-yl)-5-methoxypyrimidin-4-yl]amino}-1H-indazol-6-yl)-5′-methoxyspiro[cyclopropane-1,3′-indol]-2′(1 ‘H)-one] | 314.9287 | 332 nM | 301.0878 | 2.67 nM
COc1ccc2c(c1)[C@]1(C[C@H]1c1ccc3c(Nc4ccc(C(=O)N5[C@H](C)CCC[C@@H]5C)nc4OC)n[nH]c3c1)C(=O)N2 [Example 245, (1R,2S)-2-[3-({6-[(2R,6S)-2,6-dimethylpiperidine-1-carbonyl]-2-methoxypyridin-3-yl}amino)-1H-indazol-6-yl]-5′-methoxyspiro[cyclopropane-1,3′-indol]-2′(1′H)-one] | 319.6476 | 131 nM | 1730.3523 | 0.738 nM
COc1ccc2c(c1)[C@]1(C[C@H]1c1ccc3c(Nc4ncc(S(=O)(=O)C5CC5)cc4OC)n[nH]c3c1)C(=O)N2 [Example 258, (1R,2S)-2-(3-{[5-(Cyclopropanesulfonyl)-3-methoxypyridin-2-yl]amino}-1H-indazol-6-yl)-5′-methoxyspiro[cyclopropane-1,3′-indol]-2′(1′H)-one] | 464.7558 | 168 nM | 1100.4954 | 1.41 nM
COc1ccc2c(c1)[C@]1(C[C@H]1c1ccc3c(Nc4ncc(S(=O)(=O)N5CCCO5)cc4OC)n[nH]c3c1)C(=O)N2 [Example 267, (1R,2S)-5′-methoxy-2-(3-{[3-methoxy-5-(1,2-oxazolidine-2-sulfonyl)pyridin-2-yl]amino}-1H-indazol-6-yl)spiro[cyclopropane-1,3′-indol]-2′(1′H)-one] | 406.8833 | 325 nM | 789.0376 | 1.57 nM
COc1ccc2c(c1)[C@]1(C[C@H]1c1ccc3c(Nc4cc(C)ncc4Cl)n[nH]c3c1)C(=O)N2 [Example 96, (1R,2S)-2-{3-[(5-chloro-2-methylpyridin-4-yl)amino]-1H-indazol-6-yl}-5′-metboxyspiro[cyclopropane-l,3′-indol]-2′(1′H)-one] | 351.8943 | 56.6 nM | 511.3656 | 11.3 nM
COc1ccc2c(c1)[C@]1(C[C@H]1c1ccc3c(Nc4nc(Cl)nc5ccoc45)n[nH]c3c1)C(=O)N2 [Example 165, (1R,2S)-2-{3-[(2-chlorofuro[3,2-d]pyrimidin-4-yl)amino]-1H-indazol-6-yl}-5′-methoxyspiro[cyclopropane-1,3′-indol]-2′(1′H)-one] | 76.9329 | 1060 nM | 111.2559 | 4.68 nM
COc1ccc2c(c1)[C@]1(C[C@H]1c1ccc3c(Nc4nc(C(C)C)ncc4OC)n[nH]c3c1)C(=O)N2 [Example 125, (1R,2S)-5′-methoxy-2-(3-{[5-methoxy-2-(propan-2-yl)pyrimidin-4-yl]amino}-1H-indazol-6-yl)spiro[cyclopropane-1,3′-indol]-2′(1′H)-one] | 495.7388 | 160 nM | 1323.9707 | 0.833 nM
COc1ccc2c(c1)[C@]1(C[C@H]1c1ccc3c(Nc4nc(C(C)C)ncc4Cl)n[nH]c3c1)C(=O)N2 [Example 117, (1R,2S)-2-(3-{[5-chloro-2-(propan-2-yl)pyrimidin-4-yl]amino}-1H-indazol-6-yl)-5′-methoxyspiro[cyclopropane-1,3′-indol]-2′(1′H)-one] | 906.5058 | 109 nM | 1388.1947 | 2.32 nM
COc1ccc2c(c1)[C@]1(C[C@H]1c1ccc3c(Nc4nc(C)nc(N5CCS(=O)(=O)CC5)c4OC)n[nH]c3c1)C(=O)N2 [Example 57, 4-[5-methoxy-6-({6-[(1R,2S)-5′-methoxy-2′-oxo-1′,2′-dihydrospiro[cyclopropane-1,3′-indol]-2-yl]-1H-indazol-3-yl}amino)-2-methylpyrimidin-4-yl]-1λ6-thiomorpholine-1,1-dione] | 831.2992 | 3960 nM | 3527.559 | 5.08 nM
COc1ccc2c(c1)[C@]1(C[C@H]1c1ccc3c(Nc4nc(N5CCOCC5)ncc4OC)n[nH]c3c1)C(=O)N2 [Example 97, (lR,2S)-5′-methoxy-2-(3-{[5-methoxy-2-(morpholin-4-yl)pyrimidin-4-yl]amino}-1H-indazol-6-yl)spiro[cyclopropane-1,3′-indol]-2′(1′H)-one] | 520.2809 | 222 nM | 309.2186 | 1.14 nM
